Where “and” joins values, the source holds several entries; their conditions need not be identical. Equal entries are not always repeated.
Columns and labels:
Format in all cases: in vivo, patients
[1] = test system: cerebellar tremor caused by MS, cerebellar degeneration or drug toxicity; assay: Placebo-controlled, double blind, crossover study: manual co-ordination (spiral copying, word copying or line drawing) judged by blind observers; set-up: key to Spiral Writing drug: 0 = none; + = a little; ++ = moderate; +++ = a lot of improvement
Description: (§1) A placebo-controlled, double blind, crossover study of intravenous ondansetron in twenty patients with cerebellar tremor caused by MS, cerebellar degeneration or drug toxicity was conducted. Most had tremor based upon cerebellar involvement from MS; three had familial degenerative disorders involving the cerebellum and one had acquired lithium toxicity. The clinical information and prior treatment of the patients is outlined below in Table 1. Patients were randomly assigned to receive intravenous ondansetron (8mg or a placebo, consisting of normal saline). The drug was given by intravenous bolus injection. Patients were given the alternate agent at a later interval. The principal outcome measure was the change in manual co-ordination tasks as assessed by spiral copying, word copying or line drawing and the time to complete a nine-hole peg test. Only 12 patients had sufficient co-ordination to complete the nine-hole peg test. The clinical outcome was measured at baseline and one hour following the infusion. Figures 1 (a), (b) and (c) represent an attempt to copy a spiral by the first mentioned patient in Table 1. Figure 1(a) represents an attempt prior to treatment with ondansetron; figure 1(b) an attempt after receiving placebo; and figure 1 (c) an attempt after receiving ondansetron.

[2] = test system: cerebellar tremor caused by MS, cerebellar degeneration or drug toxicity; assay: Placebo-controlled, double blind, crossover study: time to complete a nine-hole peg test
Description: as §1, with “infusion.” for “infusion. Figures 1 (a), (b) and (c) represent an attempt to copy a spiral by the first mentioned patient in Table 1. Figure 1(a) represents an attempt prior to treatment with ondansetron; figure 1(b) an attempt after receiving placebo; and figure 1 (c) an attempt after receiving ondansetron.”

[3] = test system: cerebellar tremor caused by MS, cerebellar degeneration or drug toxicity; assay: Placebo-controlled, double blind, crossover study: subjective response and patient identification of treatment assignment; set-up: key to Subjective drug response: 0 = none; + = a little; ++ = moderate; +++ = a lot of improvement
Description: A placebo-controlled, double blind, crossover study of intravenous ondansetron in twenty patients with cerebellar tremor caused by MS, cerebellar degeneration or drug toxicity was conducted. Most had tremor based upon cerebellar involvement from MS; three had familial degenerative disorders involving the cerebellum and one had acquired lithium toxicity. The clinical information and prior treatment of the patients is outlined below in Table 1. Patients were randomly assigned to receive intravenous ondansetron (8mg or a placebo, consisting of normal saline). The drug was given by intravenous bolus injection. Patients were given the alternate agent at a later interval. The clinical outcome was measured at baseline and one hour following the infusion. Patient identification of treatment assignment was correct in 12/20 instances and this was based upon efficacy. None believed placebo to be better (p=0.014; Fisher exact ratio).

[4] = test system: cerebellar tremor caused by MS, cerebellar degeneration or drug toxicity; assay: Clinical observations: tolerability, long-term use, withdrawal, oral dosing
[5] = individual patients, 8mg intravenous bolus, baseline vs one hour following the infusion

Cc1nccn1CC1CCc2c(c3ccccc3n2C)C1=O (stereo not drawn) [ondansetron, 1,2,3,9-tetrahydro-9-methyl-3-[(2-methyl-1H-imidazol-1-yl)methyl]-4H-carbazol-4-one]
favourable clinical response, MS subgroup ([1]; MS subgroup of 16 patients, number with a response, p=0.001): 13 | favourable clinical response identified by a panel of three blind observers ([1]; entire study group, 8mg intravenous, p=0.009 vs placebo (Fisher exact ratio)): 13 of the 20 | Spiral Writing drug [1, 5]: + (6×) and +++ (4×) and ++ (4×) and 0 (5×) | Spiral Writing drug, Ratio ([1]; patients with improvement / patients assessed, 8mg intravenous, placebo 1/19): 13/19 | 9 hole peg-drug ([2]; individual patients, 8mg intravenous bolus, one hour following the infusion): 110 secs and 63 secs and 155 secs and 55 secs (2×) and 48 secs and 180 secs and 85 secs and 57 secs and 45 secs and 70 secs and 29 secs | 9 hole peg-drug (secs), Mean ([2]; mean of 12 patients, 8mg intravenous, placebo 87±12): 79 ± 13 s | mean time for the completion of the nine hole peg test ([2]; ± standard error, 8mg intravenous, placebo 87 ± 12, p=0.04 (Mann Whitney, one tailed, paired)): 79 ± 13 s | Patient identification of treatment assignment correct ([3]; based upon efficacy, none believed placebo to be better (p=0.014; Fisher exact ratio)): 12/20 | Subjective drug response [3, 5]: ++ (5×) and 0 (8×) and + (3×) and +++ (3×) and + (dysarthria) | speech after treatment ([3]; one patient with cerebellar degeneration too disabled to complete the tasks (Cd2, Table 1)): improved speech | Subjective drug response, Ratio ([3]; patients with improvement / patients assessed, 8mg intravenous, placebo 0/18): 12/20 | sustaining of the effect in the long term ([4]; long term use): could be sustained in the long term | reproduction of the effect of intravenous ondansetron by oral dosing ([4]; oral ondansetron (8-16mg)): could be reproduced | tolerability ([4]; patients with cerebellar tremor): well tolerated | tremor after withdrawal of the medication ([4]; withdrawal): tremor returning to pre-study levels

Reference: patent publication EP0851756B1, “USE OF ONDANSETRON IN THE MANUFACTURE OF A MEDICAMENT FOR THE TREATMENT OF TREMOR” (GLAXO GROUP LIMITED, priority 1995, dated 1997)
